Measured values published in patent US4675428A, “Sulfonic acid ester derivatives useful as antilipemic agents” (Taiho Pharmaceutical Company, Limited, priority 1982, dated 1987).
pIC50: −log10 of the molar value.

Columns and labels:
[1] = target: esterase solution prepared from a purified microsome fraction of the liver of a rat; test: Esterase inhibiting activity (hydrolysis of methyl butyrate); assay type: biochemical; conditions: pH 8.0, 37° C., 60 min
Procedure: 1. Esterase inhibiting activity
A 10 micromole quantity of methyl butyrate in a 50% ethanol solution is added as a substrate to a specified amount of buffer solution containing 0.1 mole of trishydrochloric acid (pH 8.0). To the mixture is further added a 50% ethanol solution of the compound of the invention, immediately followed by addition of an esterase solution prepared from a purified microsome fraction of the liver of a rat (adjusted to hydrolyze 9 micromoles of methyl butyrate at 37° C. in one hour) as an enzyme solution. The mixture is reacted at 37° C. for 60 minutes.
After the reaction, alkaline hydroxylamine is added to the mixture to form a hydroxamic acid derivative of methyl butyrate, and a ferric salt is added to the derivative. The resulting red color is colorimetrically determined (at a wavelength of 540 nm) to determine the amount of remaining methyl butyrate. The esterase inhibiting ratios of the present compound at (at least three) different concentrations are plotted as ordinate, and the logarithms of the concentrations as abscissa to obtain a line, which gives the 50% inhibition concentration (IC50).

chymotripsin = chymotripsin (Bos taurus, UniProt P00766); test: Chymotripsin inhibiting activity (ATEE hydrolysis); assay type: biochemical; conditions: 1 × 10^-4 mole; pH 8.0, 37° C., ATEE substrate
Procedure: 2. Chymotripsin inhibiting activity
An enzyme solution (0.1 unit of chymotripsin) is added to a specified quantity of buffer solution containing 0.1 mole of trishydrochloric acid (pH 8.0). To the mixture is further added a 50% ethanol solution of the compound of the invention, and the resulting mixture is reacted at 37° C. for 20 minutes.
On completion of the reaction, 10 micromoles of N-acetyl-L-thyrosine (ATEE) serving as a substrate is added to the mixture, and the resulting mixture is reacted at 37° C. for 30 minutes. After the completion of the reaction, the amount of remaining ATEE is determined by the same hydroxamic acid method as used in the method of determining the esterase inhibiting activity. The percent chymotripsin inhibition is given by
Percent inhibition=(A-B/A)×100
wherein A is the amount of hydrolyzed esters in the reaction system not containing the compound of the invention, and B is the amount of hydrolyzed esters in the reaction system containing the present compound.

plasma triglycerides = test: Antilipemic effect (plasma triglycerides after oral olive oil); assay type: in vivo, male Wistar rats; conditions: Wistar rats, oral in olive oil (100 mg in 5 ml, 5 ml/kg), plasma 2 h after dosing
Procedure: Seven-week-old male Wistar rats weighing 200 to 220 g are used, 5 rats in each group.
The compound of the invention (100 mg) is dissolved in 5 ml of olive oil. The olive oil containing the compound is orally given to the rat with a probe at a dose of 5 ml/kg. Two hours thereafter, 6 ml of whole blood is withdrawn from the descending aorta of the rat under ether anesthesia with a syringe containing heparin. The blood is centrifuged at 5° C. and 3000 r.p.m. to obtain the plasma.
The plasma collected is used for determining the triglycerides content, using a triglycerides measuring kit (trade mark "Triglycerides-B Test Wako," product of Wako Junyaku Co., Ltd., Japan). Olive oil containing no compound is similarly given to a control group, while no treatment is conducted for a normal group. The triglycerides content in the plasma is also determined for these groups in the same manner as is the case with the test groups.
The percent hyperlipidemia inhibition achieved by the present compound is given by
Percent inhibitaion=(A-C/A-B)×100
in which A is the triglycerides content of the control group, B is the triglycerides content of the normal group, and C is the triglycerides content of the group to which the present compound is given.

[2] = Heat-stability on storage at 40° C. (HPLC content of undecomposed compound); assay type: physicochemical; conditions: for remaining at 288 h / remaining at 360 h: solid storage; for remaining at 288 h: 12th day; for remaining at 360 h: 15th day; for Content (%) Start: start (initial content)
Procedure: The following compounds (200 mg each) were placed in transparent sample bottles, and left to stand at a constant temperature of 40° C. for 15 days. Thereafter, they were checked for the heat-stability by determining the change of content of the compounds which remained not decomposed as of the 12th and 15th day. The content was measured by high performance liquid chromatography using a 60:40 mixture of acetonitrile and water as an eluent, and the percentages of the content of the undecomposed compound were calculated based on the initial content.

Compound	pIC50 [1]	Chymotripsin inhibition (%) (chymotripsin)	remaining at 288 h [2]	remaining at 360 h [2]	Content (%) Start [2]	Antilipemic TG inhibition (%) (plasma triglycerides)
CC[C@H]1CC[C@@](CC)(C(=O)COS(=O)(=O)c2ccccc2)CC1 [Compound 1]	4.46	12%	–	–	–	–
CC[C@H]1CC[C@](CC)(C(=O)COS(=O)(=O)c2ccccc2)CC1 [Compound 3]	6.47	25%	–	–	–	47.1%
CC(C)[C@H]1CC[C@@](C)(C(=O)COS(=O)(=O)c2ccccc2)CC1 [Compound 5]	4.48	14%	–	–	–	49.0%
CC(C)[C@H]1CC[C@](C)(C(=O)COS(=O)(=O)c2ccccc2)CC1 [Compound 7]	7.80	26%	–	–	–	72.0%
Cc1ccc(S(=O)(=O)OCC(=O)C2(C)CCC(C(C)C)CC2)cc1 (stereo not shown) [Compound 8]	6.25	35%	–	–	–	–
CC(C)C[C@H]1CC[C@](C)(C(=O)COS(=O)(=O)c2ccccc2)CC1 [Compound 11]	5.66	15%	–	–	–	70.5%
CC1(C)CCC(C(=O)COS(=O)(=O)c2ccccc2)CC1 [Compound 16, 1-(benzenesulfonyloxy)-2-(4,4-dimethylcyclohexyl)-2-ethanone]	8.24	71%	–	–	–	77.5%
Cc1cc(C)c(S(=O)(=O)OCC(=O)C2CCC(C)(C)CC2)c(C)c1 [Compound 17]	8.70	–	–	–	–	–
COc1ccc(S(=O)(=O)OCC(=O)C2CCC(C)(C)CC2)cc1 [Compound 18]	5.60	–	–	–	–	–
CCCC1(C)CCC(C(=O)COS(=O)(=O)c2ccccc2)CC1 (stereo not shown) [Compound 19]	8.38	34%	–	–	–	95.4%
O=C(COS(=O)(=O)c1ccccc1)C1CCC2(CCCC2)CC1 [Compound 22]	7.66	41%	–	–	–	84.2%
Cc1ccc(S(=O)(=O)OCC(=O)C2CCC3(CCCC3)CC2)cc1 [Compound 23]	5.52	–	–	–	–	–
O=C(COS(=O)(=O)c1ccccc1)C1CCC2(CCCCC2)CC1 [Compound 24]	8.27	61%	–	–	–	93.5%

The next lines start with results.

pIC50 [1]	Chymotripsin inhibition (%) (chymotripsin)	remaining at 288 h [2]	remaining at 360 h [2]	Content (%) Start [2]	Compound	Antilipemic TG inhibition (%) (plasma triglycerides)
–	–	92%	14%	100%	CC(C)[C@H]1CC[C@H](C(=O)COS(=O)(=O)c2ccccc2)CC1 [Compound C-1]	–
–	–	93%	16%	100%	Cc1ccc(S(=O)(=O)OCC(=O)[C@H]2CC[C@H](C(C)(C)C)CC2)cc1 [Compound C-2]	–
–	–	95%	40%	100%	Cc1cc(C)c(S(=O)(=O)OCC(=O)C2CCC(C(C)C)CC2)c(C)c1 (stereo not shown) [Compound C-3]	–
–	–	91%	15%	100%	CCOc1ccc(S(=O)(=O)OCC(=O)C2CCC(CC)CC2)cc1 (stereo not shown) [Compound C-4]	–
–	–	85%	15%	100%	O=C(COS(=O)(=O)c1ccccc1)C1CCCCC1 [Compound C-5]	–
–	–	80%	14%	100%	CCOc1ccc(S(=O)(=O)OCC(=O)C2CCCCC2)cc1 [Compound C-6]	–
–	–	95%	20%	100%	Cc1cc(C)c(S(=O)(=O)OCC(=O)C2CCCCC2)c(C)c1 [Compound C-7]	–
–	–	72%	19%	100%	O=C(CCC1CCCCC1)COS(=O)(=O)c1ccccc1 [Compound C-8]	–
–	–	100%	100%	100%	Cc1cc(C)c(S(=O)(=O)OCC(=O)C2(C)CCC(C(C)C)CC2)c(C)c1 (stereo not shown) [Compound T-6]	–
–	–	100%	100%	100%	CC(C)[C@H]1CC[C@](C)(C(=O)COS(=O)(=O)c2ccccc2)CC1 [Compound T-7]	–
–	–	100%	100%	100%	Cc1ccc(S(=O)(=O)OCC(=O)C2(C)CCC(C(C)C)CC2)cc1 (stereo not shown) [Compound T-8]	–
–	–	100%	100%	100%	COc1ccc(S(=O)(=O)OCC(=O)C2(C)CCC(CC(C)C)CC2)cc1 (stereo not shown) [Compound T-13]	–
